# Reference: article PMC7794844 (Molecules, 2020)
# Where two headings read alike, the source gives them in different places.
# Tests used:
# [1] = test system: SARS-CoV-2 pseudovirus in 293T-hACE2 cells; test: Pseudovirus entry assay (luciferase), SARS-CoV-2 pseudovirus; assay type: cell-based
# S-RBD-His protein = molecular target: T1, S-RBD-His protein (Severe acute respiratory syndrome coronavirus 2, UniProt P0DTC2); test: Isothermal titration calorimetry (ITC) of compound with S-RBD-His; assay type: binding, SARS-CoV-2; conditions: 25 °C, read-out: affinity measured by ITC
# T1 construct: spike S-RBD protein with His tag (26.6 kDa)
# 293T-hACE2 cells = test: Cytotoxicity in 293T-hACE2 cells (PrestoBlue / CCK)
# Experimental: (§1) First, cytotoxicity of 02B05 and 03D12 in 293T-hACE2 cells was assayed using PrestoBlue cell viability reagent. Briefly, the cells were seeded into 96-well plates and treated with different concentrations of compounds (a three-fold concentration series from 0.12 to 30 μM for 02B05 and 0.12 to 3.3 μM for 03D12). After incubation at 37 °C for 24 h, 10 μL PrestoBlue (10×) was added to each well and mixed well with the medium. After incubation at 37 °C for another 1 h, the fluorescent signals were read at an excitation wavelength of 560 nm and an emission wavelength of 590 nm, using the EnSpire multimode plate reader (Perkin Elmer, Waltham, MA, USA).
# [2] = as above; conditions: human, 293T-hACE2 cells
# Experimental: as §1
# [3] = molecular target: T2, SARS-CoV-2 spike S-RBD protein (Severe acute respiratory syndrome coronavirus 2, UniProt P0DTC2); test: biochemical; assay type: binding
# T2 construct: the S-RBD-mFc protein and ACE2-His protein were immobilized on a CM5 sensor chip; purchased Sino Biological (Beijing, China) 40592-V05H
# ACE2-S-RBD interaction = ACE2-S-RBD interaction (Severe acute respiratory syndrome coronavirus 2, UniProt P0DTC2); assay type: binding
# [4] = test system: VSV pseudovirus in 293T-hACE2 cells; assay type: cell-based, vesicular stomatitis virus
# human ACE2 protein = human ACE2 protein (Homo sapiens, UniProt Q9BYF1); test: SPR affinity screen, compounds over immobilized ACE2-His (CM5 chip); assay type: binding
# Sequence of human ACE2 protein (Q9BYF1 18-740 limits assumed): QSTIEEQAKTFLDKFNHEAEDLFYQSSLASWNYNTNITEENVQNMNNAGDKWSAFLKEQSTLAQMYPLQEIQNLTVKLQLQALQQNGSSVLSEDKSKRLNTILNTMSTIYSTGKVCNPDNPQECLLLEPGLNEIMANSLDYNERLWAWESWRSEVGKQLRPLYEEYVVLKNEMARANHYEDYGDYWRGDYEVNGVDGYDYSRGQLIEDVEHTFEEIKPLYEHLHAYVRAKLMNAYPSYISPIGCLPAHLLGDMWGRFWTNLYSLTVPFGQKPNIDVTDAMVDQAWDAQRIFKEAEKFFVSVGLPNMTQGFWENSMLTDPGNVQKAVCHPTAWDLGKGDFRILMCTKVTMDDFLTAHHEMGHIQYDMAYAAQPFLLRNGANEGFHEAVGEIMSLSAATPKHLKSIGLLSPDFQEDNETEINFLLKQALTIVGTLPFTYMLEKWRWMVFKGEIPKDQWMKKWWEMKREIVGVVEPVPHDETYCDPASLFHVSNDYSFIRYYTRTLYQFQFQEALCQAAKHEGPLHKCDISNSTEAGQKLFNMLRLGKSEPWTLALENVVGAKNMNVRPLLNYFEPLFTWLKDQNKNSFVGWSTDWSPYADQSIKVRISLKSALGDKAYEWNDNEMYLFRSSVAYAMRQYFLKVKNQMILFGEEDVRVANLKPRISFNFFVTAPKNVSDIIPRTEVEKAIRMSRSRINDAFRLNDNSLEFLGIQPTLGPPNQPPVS
SMILES,Kd [3] [µM],koff [3] [s⁻¹],kon [3] [M⁻¹ s⁻¹],blocking effect on binding of S-RBD to ACE2 (competitive inhibition) (ACE2-S-RBD interaction),Kd (human ACE2 protein) [µM],koff (human ACE2 protein; read-out: koff) [s⁻¹],kon (human ACE2 protein; read-out: kon) [M⁻¹ s⁻¹],further results
"C[C@@]1(C(=O)O)CC[C@]2(C)CC[C@]3(C)C4=CC(=O)c5c(cc(O)c(O)c5C=O)[C@]4(C)CC[C@@]3(C)[C@@H]2C1 [02B05, demethylzeylasteral]",1.04,0.00244,2350,strongest blocking effect,1.74,–,–,"inhibition at 0.37 µM ([1]; Severe acute respiratory syndrome-related coronavirus, 0.37 μM, 293T-hACE2 cells, 24 h post infection, read-out: inhibition of transduction of SARS-CoV-2 pseudovirus): ~7%; Kd (S-RBD-His protein): 2.09 µM; cell viability and cell morphology (293T-hACE2 cells; at 0.37 μM): no changes were observed; cell morphology (293T-hACE2 cells; at 1.1 μM): affected; effect on the activity (viability) of 293T-hACE2 cells (293T-hACE2 cells; concentration no more than 1.1 μM, CCK and PrestoBlue): no significant effect; CC50 at 24 h [2]: 7.67 ± 0.79 µM; effect on the transduction of VSV pseudovirus [4]: no effect; koff (human ACE2 protein): 0.00335 s⁻¹; kon (human ACE2 protein): 1990 M⁻¹ s⁻¹"
C=CC(=O)Nc1cc(Nc2nccc(-c3c[nH]c4ccccc34)n2)c(OC)cc1N(C)CCN(C)C [02C15],9.11,0.0215,2360,–,–,–,–,–
CC(C)c1cc(C(C)C)c(CC(=O)NS(=O)(=O)Oc2ccccc2)c(C(C)C)c1 [02C19],–,–,–,–,–,0.052,2340,"Kd (human ACE2 protein; target ACE2, SPR, 1:1 binding model for kinetics): 22.2 µM"
Nc1nc(Nc2ccc3c(c2)CC[C@@H](N2CCCC2)CC3)nn1-c1cc2c(nn1)-c1ccccc1CCC2 [02J06],64.2,0.329,5120,–,243,0.636,2610,–
COc1cc2c(Oc3ccc4[nH]c(C)cc4c3F)ncnc2cc1OCCCN1CCCC1 [03D12],4.59,0.00964,2100,effective in blocking ACE2-S-RBD interaction,3.43,0.00948,2760,inhibitory activity in pseudovirus entry assay ([1]; any concentration tested (0.12 to 3.3 μM)): did not exhibit significant inhibitory activity; inhibitory activity in pseudovirus entry assay ([1]; at 3.3 μM): no obvious; cytotoxicity (293T-hACE2 cells; concentration as high as 3.3 μM): not obvious
"Cl.N [ammonium chloride, reference compound]",–,–,–,–,–,–,–,"infection by SARS-CoV-2 pseudovirus ([1]; positive control, 20 mM, 293T-hACE2 cells): almost abolished; infection by VSV pseudovirus [4]: almost abolished"
